From patent EP2769974A1, “Novel AMPK activator” (Debiopharm S.A., priority 2013, dated 2014)

Legend:
[1] = test system: HFD mice; assay: Hepatic glucose production in HFD mice (hyperinsulinemic-euglycemic clamp); format: in vivo; conditions: for hepatic glucose production: orally 60 mg/kg twice daily for 40 days, under insulin stimulated states, p < 0.001 vs Control HFD, 60 mg/kg
Protocol: Six-week-old male C57BI/6 mice were fed a high-fat diet or chow diet for 3 months. Then, HFD mice were treated orally with vehicle (Control HFD) or compound of formula (I) at 60 mg/kg twice daily for 40 days. Chow fed mice were treated orally with vehicle alone (Control CD). Hepatic glucose production was assessed during a hyperinsulinemic-euglycemic clamp using a 12 mU/kg/min insulin infusion rate. Hyperinsulinemic-euglycemic clamps were performed in chronically cannulated awake free moving mice. Before the start of the clamp procedure mice were fasted for 6 hours. ^3H-glucose alone was then infused for 210 minutes to assess the basal whole body glucose turnover (= hepatic glucose output). The basal procedure started with D-[3-3H]glucose, which was infused (2µL/min, 30µCi/min/kg) for 90 minutes (time -60 to time 30 minutes). An euglycemic hyperinsulinemic 1 step insulin clamp was then performed from 30 minutes to 150 minutes, with a 12mU/kg/min insulin infusion. Glucose (16.5%) infusion rate was adjusted until steady-state blood glucose (120 mg/dL, ± 10 mg/dL) was achieved. Calculations for glucose turnover measurements were made from parameters obtained during the last 60 min of the infusions in steady-state condition, Briefly, the D-[3-3H]glucose-specific activity was calculated by dividing the D-[3-3H]glucose enrichment by the plasma glucose concentration. The whole-body glucose turnover rate was calculated by dividing the rate of D-[3-3H]glucose by the D-[3-3H]glucose plasma-specific activity. For each mouse, the mean values were calculated and averaged with values from mice of the same group.

[2] = test system: HFD mice; assay: Hepatic lipids in HFD mice; format: in vivo; conditions: orally 60 mg/Kg twice daily for 40 days, to near control chow values
Protocol: Six-week-old male C57BI/6 mice were fed a high-fat diet or chow diet for 3 months. Then, HFD mice were treated orally with vehicle (Control HFD) or compound of formula (I) at 60 mg/Kg twice daily for 40 days. Chow fed mice were treated orally with vehicle alone (Control CD). At completion of this treatment period, mice were sacrificed and liver collected for determination of triglycerides, cholesterol and free fatty acids (FFA) content. Commercial kits were used to measure the levels of hepatic cholesterol (cholesterol RTU, Biomerieux), triglyceride (TG) (triglyceride PAP 150, Biomerieux), and fatty acid (NEFA-HR (2), Wako Chemicals) levels from liver homogenate. Results were then normalized to the weight of the sample.

[3] = test system: HFD hamster; assay: Circulating lipids (FPLC lipoprotein profile) and insulin sensitivity in HFD hamster; format: in vivo
Protocol: Hamsters were fed a control chow diet with normal drinking water or high fat diet with 10% fructose drinking water over 30 days. After 16 days of high-fat diet, two groups of hamsters were treated orally with either vehicle (control HFD) or Compound of formula (I) twice daily for 14 days. Hamsters fed the chow diet were also treated orally for 14 days with vehicle BID (control CD). After the treatment period, hamsters were overnight fasted, blood samples were obtained from the retroorbital plexus. Plasma was immediately isolated by centrifugation and for each group, a 400 µL pool of plasma was made from the individual plasma samples. Lipoproteins were separated by fast performance liquid chromatography (FPLC). FPLC fractions were monitored for cholesterol levels.

[4] = test system: β2-containing heterotrimers of human recombinant AMPK; assay: AMPK activation assay (phosphorylation of ACC1/1-120 at ser79, AlphaScreen), β2-containing heterotrimers; format: biochemical; conditions: two β2-containing heterotrimers; 100 µM ATP, room temperature, 60 minutes
Protocol: (§1) The compound of formula (I) was assayed in vitro to determine its EC50 against four different AMPK heterotrimers (two containing the β1 subunit and two containing the β2 subunit). AMPK activity was measured by the phosphorylation of the amino-terminal fragment of human acetyl CoA carboxylase-type 1, amino acids 1-120 (ACC1/1-120), at ser79. The fragment was expressed as a biotinylated fusion protein in E.coli. Human rAMPK genes were expressed in insect cells using baculovirus vectors or in the monkey COS7 cell expression systems. The compound was tested in triplicate at each of the following concentrations (µM): 45, 15, 5, 1.67, 0.56, 0.185, 0.06, 0.02 and 0.00685. A positive control comprising AMP (100 uM), and a negative control without enzyme, were used. The enzyme assay was conducted in a 5 µl reaction mixture containing compound of formula (I) at the indicated concentrations in 80 mM HEPES, pH7.0, 160 mM NaCl, 2.5 mM MgCl2, 1mM DTT, 0.05% Tween-20, 100 µM ATP with AMPK at 0.08 ng/µl and ACC1/1-120 at 0.004 ng/µl. […] The reaction mixture was further incubated overnight at RT and analyzed on a Perkin EImer Fusion-Alpha microplate analyzer. The AlphaScreen readout for this assay is based on an excitation with laser-stimulated visible light at 680 nm and emission at 520-620 nm.

[5] = test system: β1-containing heterotrimers of human recombinant AMPK; assay: AMPK activation assay (phosphorylation of ACC1/1-120 at ser79, AlphaScreen), β1-containing heterotrimers; format: biochemical; conditions: two β1-containing heterotrimers; 100 µM ATP, room temperature, 60 minutes
Protocol: as §1

[6] = test system: high-fat diet-fed (HFD) mice; assay: Fasting plasma glycemia and insulin sensitivity in high-fat diet-fed (HFD) mice; format: in vivo
Protocol: Six-week-old male C57BI/6 mice were fed a high-fat diet or chow diet for 3 months. Then, HFD mice were treated orally with vehicle (Control HFD) or compound of formula (I) at 60 mg/kg twice daily for 4 weeks. Chow fed mice were treated orally with vehicle alone (Control CD). At completion of this treatment period, mice were fasted for 6 hours and blood glucose levels were assessed with a blood glucosemeter from blood samples collected from the tip of the tail vein.

[7] = HFD hamsters, orally twice daily for 14 days, FPLC of pooled plasma

Question: For `O=C(O)c1c[nH]c2ccc(-c3ccc(-c4c(O)cccc4O)cc3)cc12` [compound of formula (I), 5-(2',6'-dihydroxy-biphenyl-4-yl)-1H-indole-3-carboxylic acid], which “decrease of hepatic glucose production” value ([1]; orally 60 mg/kg twice a day, basal state) is on record?
Answer: The value was “at least 34%”.

Question: What about the hepatic glucose production [1] of the same compound?
Answer: Its hepatic glucose production is “normalized”.

Question: What about the hepatic glucose production ([1]; listed as Compound of formula (I)) of the same compound?
Answer: Its hepatic glucose production is “blunted”.

Question: What about the liver lipids content [2] of the same compound?
Answer: The liver lipids content was “reduced”.

Question: And the “HOMA-IR decrease (insulin sensitivity)” value ([3]; HFD hamster, results not shown)?
Answer: Its value is 37%.

Question: And the “HDL total cholesterol levels” value [3, 7]?
Answer: The value was “increased”.

Question: And the “LDL total cholesterol levels” value [3, 7]?
Answer: Its value is “reduced”.

Question: And the “VLDL total cholesterol levels” value [3, 7]?
Answer: The value was “reduced”.

Question: What about the EC50 [4] of the same compound?
Answer: The EC50 was < 5000 nM.

Question: And the EC50 [5]?
Answer: The EC50 was < 500 nM.

Question: What about the “decrease of fasting plasma glycemia” value ([6]; orally 60 mg/kg twice a day) of the same compound?
Answer: The value was “at least 17%”.

Question: And the blood glucose ([6]; orally 60 mg/kg twice daily for 4 weeks, fasted for 6 hours, p <0.05 vs Control HFD)?
Answer: Its blood glucose is “significantly decreased”.

Question: And the “HOMA-IR decrease (insulin sensitivity)” value ([6]; results not shown)?
Answer: The value was 43%.
